This is an account of results in PubChem BioAssay (NCI).

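Results reflect a 48-hour exposure of cells in 96-well plates to compound at five concentrations. TGI marks complete inhibition of growth.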

Test systems include A498 renal; CAKI-1 renal; EKVX NSCLC; HCC-2998 colon; HOP-92 NSCLC; IGROV1 ovarian; M14 melanoma; M19-MEL melanoma; MOLT-4 leukemia; NCI-H23 lung; OVCAR-5 ovarian; OVCAR-8 ovarian; SF-539 CNS; SK-MEL-28 melanoma; SK-OV-3 ovarian; SNB-75 CNS; TK-10 renal; UACC-62 melanoma; BT-549 breast; MDA-MB-435.
Common to all, as to assay: growth of human tumour cells (NCI), 48 h

As to `CC1=C(O)C(=O)C2C(=O)C1C(C)C2c1ccccc1` (stereo not given), the TGI in the experiment with A498 renal, in the experiment on CAKI-1 renal, with EKVX NSCLC, in the experiment on HCC-2998 colon, in the experiment on HOP-92 NSCLC and in the experiment on IGROV1 ovarian was more than 100 µM throughout. For the same compound, the TGI with M14 melanoma, with M19-MEL melanoma, in the experiment with MOLT-4 leukemia, with NCI-H23 lung, in the experiment on OVCAR-5 ovarian and in the experiment with OVCAR-8 ovarian was more than 100 µM in each case. Moreover, the TGI in the experiment with SF-539 CNS, with SK-MEL-28 melanoma, in the experiment on SK-OV-3 ovarian, in the experiment with SNB-75 CNS, in the experiment on TK-10 renal and in the experiment on UACC-62 melanoma was more than 100 µM in each case.

For `CC(C)(C)OC(=O)NC(Cc1ccccc1)C(=S)N1CCCC1` (stereo not given), the TGI in the experiment with A498 renal, in the experiment with CAKI-1 renal, in the experiment with EKVX NSCLC, in the experiment with HCC-2998 colon, in the experiment with HOP-92 NSCLC and in the experiment on IGROV1 ovarian was more than 100 µM in each case. Also, the TGI in the experiment with M14 melanoma, in the experiment with M19-MEL melanoma, in the experiment with MOLT-4 leukemia, in the experiment with NCI-H23 lung, in the experiment on OVCAR-5 ovarian and in the experiment on OVCAR-8 ovarian was more than 100 µM each time. Further, the TGI in the experiment on SF-539 CNS, in the experiment on SK-MEL-28 melanoma, with SK-OV-3 ovarian, with SNB-75 CNS, with TK-10 renal and with UACC-62 melanoma was more than 100 µM in each case.

`[N-]=[N+]=C1C(=O)C2CC3CC1CC2C3` (stereo not given): the TGI in the experiment on A498 renal, in the experiment with CAKI-1 renal, in the experiment with EKVX NSCLC, with HCC-2998 colon, in the experiment with HOP-92 NSCLC and with IGROV1 ovarian was more than 100 µM each time. Besides, the TGI in the experiment on M14 melanoma, in the experiment on M19-MEL melanoma, in the experiment with MOLT-4 leukemia, in the experiment on NCI-H23 lung, in the experiment on OVCAR-5 ovarian and in the experiment on OVCAR-8 ovarian was more than 100 µM each time. Besides, the TGI with SF-539 CNS, in the experiment with SK-MEL-28 melanoma, in the experiment on SK-OV-3 ovarian, in the experiment on SNB-75 CNS, in the experiment on TK-10 renal and in the experiment with UACC-62 melanoma was more than 100 µM each time.

In the case of `Cc1ccc(NC(=O)C(=O)C2C(=O)NC(=O)NC2=O)c(C)c1`, the TGI in the experiment on A498 renal, in the experiment on CAKI-1 renal, in the experiment with EKVX NSCLC, with HCC-2998 colon, in the experiment on HOP-92 NSCLC and in the experiment with IGROV1 ovarian was more than 100 µM each time. In addition, the TGI in the experiment with M14 melanoma, in the experiment with M19-MEL melanoma, with MOLT-4 leukemia, in the experiment on NCI-H23 lung, in the experiment with OVCAR-5 ovarian and in the experiment with OVCAR-8 ovarian was more than 100 µM in each case. Also, the TGI with SF-539 CNS, in the experiment on SK-MEL-28 melanoma, in the experiment on SK-OV-3 ovarian, with SNB-75 CNS, with TK-10 renal and with UACC-62 melanoma was more than 100 µM each time.

Consider `COc1ccc2c(c1)c1ccc3c(c1n2C)C(=O)C=CC3=O`, for which the TGI worked out at 53.5 µM in the experiment on A498 renal; 10.3 µM in the experiment with BT-549 breast; 18.6 µM with CAKI-1 renal; 35.7 µM in the experiment on EKVX NSCLC; 34.6 µM with HCC-2998 colon; 14.5 µM with HOP-92 NSCLC. Further, the TGI in the experiment with IGROV1 ovarian is 28.3 µM; in the experiment with M14 melanoma it was 24.3 µM; in the experiment with M19-MEL melanoma it was more than 58.9 µM; in the experiment with MDA-MB-435 it was 22.7 µM; in the experiment with MOLT-4 leukemia it was 4.5 µM; in the experiment with NCI-H23 lung, 32.2 µM. Also, the TGI amounted to 35 µM with OVCAR-5 ovarian; 26.6 µM in the experiment with OVCAR-8 ovarian; 28 µM with SF-539 CNS; 22.5 µM with SK-MEL-28 melanoma; 41.3 µM with SK-OV-3 ovarian; 68.9 µM in the experiment on SNB-75 CNS. The TGI amounted to 17.4 µM with TK-10 renal and 29.3 µM with UACC-62 melanoma.

As for `O=C(/C=C/c1ccc(-c2ccccc2)cc1)c1ccccc1`, the TGI in the experiment with A498 renal is 45.7 µM; with CAKI-1 renal, more than 100 µM; with EKVX NSCLC it was 50.8 µM; with HCC-2998 colon, 33.7 µM; in the experiment on HOP-92 NSCLC, 51.7 µM; in the experiment with IGROV1 ovarian it was 69.1 µM. The TGI was more than 100 µM in the experiment on M14 melanoma; 48.5 µM in the experiment on M19-MEL melanoma; more than 100 µM with MOLT-4 leukemia; 41.8 µM with NCI-H23 lung; 41 µM with OVCAR-5 ovarian; 33.8 µM with OVCAR-8 ovarian. For the same compound, the TGI was 32.2 µM with SF-539 CNS; 67.5 µM in the experiment on SK-MEL-28 melanoma; 58.5 µM in the experiment with SK-OV-3 ovarian; more than 100 µM in the experiment with SNB-75 CNS; 82.6 µM in the experiment with TK-10 renal; 50 µM in the experiment with UACC-62 melanoma.

Regarding `C/C(=N\N)C(CN1CCOCC1)C(c1ccccc1)c1c(O)c2ccccc2oc1=O` (stereo not given), the TGI in the experiment with A498 renal, in the experiment with BT-549 breast, in the experiment on CAKI-1 renal, in the experiment on EKVX NSCLC, with HCC-2998 colon and with HOP-92 NSCLC was more than 100 µM each time. The TGI in the experiment with IGROV1 ovarian was more than 100 µM; in the experiment on M14 melanoma, more than 100 µM; in the experiment with M19-MEL melanoma, more than 100 µM; with MDA-MB-435, more than 100 µM; with MOLT-4 leukemia, more than 80.8 µM; with NCI-H23 lung, more than 100 µM. The TGI with OVCAR-5 ovarian, in the experiment with OVCAR-8 ovarian, in the experiment on SF-539 CNS, with SK-MEL-28 melanoma, with SK-OV-3 ovarian and with SNB-75 CNS was more than 100 µM throughout. Moreover, the TGI in the experiment on TK-10 renal and in the experiment on UACC-62 melanoma was more than 100 µM in each case.
